What was measured:
Type in all cases: biochemical
TYK2 kinase = target: T1, TYK2 kinase (Homo sapiens, UniProt P29597); assay: Inhibition assay of TYK2 kinase activity (ADP-Glo Kinase Assay)
T1 construct: purchased Life Technologies PR8440C
Protocol: Determination of inhibition of TYK2 kinase activity by the examples compounds disclosed herein
Inhibition assay of TYK2 kinase activity: the method of ADP-Glo™ Kinase Assay (Promega, V9102) was used to determine the inhibitory activity of the test compounds against TYK2 kinase.
TYK2 kinase (purchased from Life Technologies, article number: PR8440C) was diluted to the 2-fold final concentration (0.8 ng/mL) using reaction buffer (40 mM Tris-HCl, pH 7.5; 20 mM MgCl2; 0.1 mg/mL BSA; 1 mM DTT), and added to a 384-well plate at 5 μL/well. The test drugs were subjected to a 10-fold gradient dilution, from 10 μM, to obtain 6 concentrations, and added to experimental wells of the 384-well plate at 2.5 μL/well. 5 μL of water and 2.5 μL of buffer were added to negative control wells. 5 μL of TYK2 and 2.5 μL of water were added to positive control wells. After incubating for 10 minutes at room temperature, the substrate ATP and polyE4Y1 (Sigma, P0275) were added at 2.5 μL/well, mixed well, and then reacted at room temperature for 60 minutes. After the reaction was completed, the kinase activity was detected according to the instruction of the kit. First, the ADP-Glo reaction reagent was added at 10 μL/well, mixed well, and reacted at room temperature for 40 minutes. The kinase detection reagent was then added at 20 μL/well, mixed well, and then reacted at room temperature for 30 minutes. The detection was then performed and the IC50s of test drugs were calculated.

JAK1 kinase = JAK1 kinase (Homo sapiens, UniProt P23458); assay: Inhibition assay of JAK1 kinase activity (ADP-Glo Kinase Assay)
JAK1 kinase, sequence (P23458 whole entry): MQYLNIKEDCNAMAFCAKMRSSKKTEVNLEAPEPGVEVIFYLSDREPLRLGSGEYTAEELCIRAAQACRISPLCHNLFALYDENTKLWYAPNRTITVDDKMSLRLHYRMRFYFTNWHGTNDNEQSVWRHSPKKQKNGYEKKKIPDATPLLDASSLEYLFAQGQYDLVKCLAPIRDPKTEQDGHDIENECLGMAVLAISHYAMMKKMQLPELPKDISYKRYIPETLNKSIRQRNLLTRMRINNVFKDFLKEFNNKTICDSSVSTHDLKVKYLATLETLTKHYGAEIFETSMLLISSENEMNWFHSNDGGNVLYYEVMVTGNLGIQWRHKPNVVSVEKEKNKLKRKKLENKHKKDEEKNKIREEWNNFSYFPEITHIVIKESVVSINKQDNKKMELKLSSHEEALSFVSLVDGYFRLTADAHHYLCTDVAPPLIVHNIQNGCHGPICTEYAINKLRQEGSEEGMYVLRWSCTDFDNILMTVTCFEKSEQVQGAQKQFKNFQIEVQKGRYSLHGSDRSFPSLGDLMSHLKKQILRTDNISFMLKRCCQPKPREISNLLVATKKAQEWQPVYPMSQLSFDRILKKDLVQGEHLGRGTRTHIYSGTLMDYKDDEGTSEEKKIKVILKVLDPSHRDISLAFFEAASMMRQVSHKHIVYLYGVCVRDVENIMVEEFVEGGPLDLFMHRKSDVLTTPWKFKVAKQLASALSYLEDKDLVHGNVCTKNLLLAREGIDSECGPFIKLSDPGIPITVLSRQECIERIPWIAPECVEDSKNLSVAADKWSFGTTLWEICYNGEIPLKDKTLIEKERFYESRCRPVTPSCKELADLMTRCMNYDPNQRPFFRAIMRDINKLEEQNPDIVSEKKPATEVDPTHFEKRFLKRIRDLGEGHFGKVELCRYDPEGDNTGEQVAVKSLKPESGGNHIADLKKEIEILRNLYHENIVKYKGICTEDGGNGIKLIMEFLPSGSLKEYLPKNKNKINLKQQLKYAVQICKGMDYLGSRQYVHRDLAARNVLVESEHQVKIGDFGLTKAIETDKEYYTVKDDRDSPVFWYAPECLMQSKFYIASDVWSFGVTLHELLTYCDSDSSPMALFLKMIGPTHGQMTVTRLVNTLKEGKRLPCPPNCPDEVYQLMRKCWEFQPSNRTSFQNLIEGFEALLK
From the text: Inhibition assay of JAK1 kinase activity: the method in ADP-Glo™ Kinase Assay (Promega, V9102) was used to determine the inhibitory activity of the test compounds against JAK1 kinase.

JAK2 kinase = JAK2 kinase (Homo sapiens, UniProt O60674); assay: Inhibition assay of JAK2 kinase activity (ADP-Glo Kinase Assay)
JAK2 kinase, sequence (O60674 whole entry): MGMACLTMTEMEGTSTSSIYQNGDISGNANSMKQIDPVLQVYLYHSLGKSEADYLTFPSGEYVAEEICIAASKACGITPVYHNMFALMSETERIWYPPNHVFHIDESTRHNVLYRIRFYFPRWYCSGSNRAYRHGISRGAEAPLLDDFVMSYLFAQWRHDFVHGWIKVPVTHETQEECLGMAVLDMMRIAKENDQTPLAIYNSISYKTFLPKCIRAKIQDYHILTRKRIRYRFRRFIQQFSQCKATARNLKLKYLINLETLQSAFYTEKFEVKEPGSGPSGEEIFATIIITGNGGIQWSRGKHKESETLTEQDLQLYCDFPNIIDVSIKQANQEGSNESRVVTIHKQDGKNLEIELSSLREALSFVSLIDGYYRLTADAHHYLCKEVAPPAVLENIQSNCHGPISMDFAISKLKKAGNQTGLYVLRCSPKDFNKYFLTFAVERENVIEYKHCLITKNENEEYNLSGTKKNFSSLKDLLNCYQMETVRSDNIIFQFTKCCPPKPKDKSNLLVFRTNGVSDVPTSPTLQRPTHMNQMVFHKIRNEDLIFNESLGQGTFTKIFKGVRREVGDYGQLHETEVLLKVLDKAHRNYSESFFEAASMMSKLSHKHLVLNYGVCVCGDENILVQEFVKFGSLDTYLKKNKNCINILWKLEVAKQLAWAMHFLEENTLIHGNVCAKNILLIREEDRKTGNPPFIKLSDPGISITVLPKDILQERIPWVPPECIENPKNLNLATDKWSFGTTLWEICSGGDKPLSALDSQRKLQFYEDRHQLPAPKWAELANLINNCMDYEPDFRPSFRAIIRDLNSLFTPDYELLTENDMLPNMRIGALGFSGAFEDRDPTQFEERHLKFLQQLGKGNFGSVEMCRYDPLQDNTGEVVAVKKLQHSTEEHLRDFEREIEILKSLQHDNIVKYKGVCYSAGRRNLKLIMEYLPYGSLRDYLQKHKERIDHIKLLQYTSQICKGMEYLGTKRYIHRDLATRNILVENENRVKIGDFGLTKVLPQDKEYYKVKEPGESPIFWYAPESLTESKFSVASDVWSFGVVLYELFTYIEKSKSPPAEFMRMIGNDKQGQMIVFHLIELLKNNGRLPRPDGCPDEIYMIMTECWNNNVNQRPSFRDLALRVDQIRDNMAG
From the text: Inhibition assay of JAK2 kinase activity: the method in ADP-Glo™ Kinase Assay (Promega, V9102) was used to determine the inhibitory activity of the test compounds against JAK2 kinase.

JAK3 kinase = target: T2, JAK3 kinase (Homo sapiens, UniProt P52333); assay: Inhibition assay of JAK3 kinase activity (ADP-Glo Kinase Assay)
T2 sequence (P52333 1-1124): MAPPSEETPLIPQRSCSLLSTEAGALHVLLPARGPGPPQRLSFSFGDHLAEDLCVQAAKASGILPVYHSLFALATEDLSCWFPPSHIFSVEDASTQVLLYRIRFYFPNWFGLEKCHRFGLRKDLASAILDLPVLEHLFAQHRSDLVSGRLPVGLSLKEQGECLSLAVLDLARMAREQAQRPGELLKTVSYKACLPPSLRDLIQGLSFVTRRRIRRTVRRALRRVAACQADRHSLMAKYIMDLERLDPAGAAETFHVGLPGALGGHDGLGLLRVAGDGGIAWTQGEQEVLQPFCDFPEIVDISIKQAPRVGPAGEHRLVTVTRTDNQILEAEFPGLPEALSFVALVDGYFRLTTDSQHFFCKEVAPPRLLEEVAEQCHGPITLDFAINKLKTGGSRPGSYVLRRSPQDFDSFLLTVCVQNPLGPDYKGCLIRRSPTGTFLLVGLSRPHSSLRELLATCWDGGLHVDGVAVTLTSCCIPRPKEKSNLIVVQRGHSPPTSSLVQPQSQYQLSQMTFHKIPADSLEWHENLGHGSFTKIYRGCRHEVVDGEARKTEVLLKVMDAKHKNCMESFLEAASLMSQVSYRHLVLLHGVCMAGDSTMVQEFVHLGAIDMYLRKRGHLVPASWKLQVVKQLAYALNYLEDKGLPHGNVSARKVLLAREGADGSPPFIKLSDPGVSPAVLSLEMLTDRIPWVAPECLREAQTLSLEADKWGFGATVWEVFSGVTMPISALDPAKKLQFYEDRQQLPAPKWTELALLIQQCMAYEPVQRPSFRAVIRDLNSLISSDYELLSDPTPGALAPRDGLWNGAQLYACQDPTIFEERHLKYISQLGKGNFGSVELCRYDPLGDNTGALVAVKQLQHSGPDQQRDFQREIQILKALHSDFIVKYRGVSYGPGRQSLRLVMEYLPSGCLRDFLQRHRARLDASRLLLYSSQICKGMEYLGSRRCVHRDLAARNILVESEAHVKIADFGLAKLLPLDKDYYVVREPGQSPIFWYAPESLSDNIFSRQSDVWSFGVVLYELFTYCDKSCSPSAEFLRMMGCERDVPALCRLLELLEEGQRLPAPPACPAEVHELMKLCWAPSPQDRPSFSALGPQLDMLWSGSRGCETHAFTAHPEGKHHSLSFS
From the text: Inhibition assay of JAK3 kinase activity: the method in ADP-Glo™ Kinase Assay (Promega, V9102) was used to determine the inhibitory activity of the test compounds against JAK3 kinase.

T1 sequence (P29597 whole entry): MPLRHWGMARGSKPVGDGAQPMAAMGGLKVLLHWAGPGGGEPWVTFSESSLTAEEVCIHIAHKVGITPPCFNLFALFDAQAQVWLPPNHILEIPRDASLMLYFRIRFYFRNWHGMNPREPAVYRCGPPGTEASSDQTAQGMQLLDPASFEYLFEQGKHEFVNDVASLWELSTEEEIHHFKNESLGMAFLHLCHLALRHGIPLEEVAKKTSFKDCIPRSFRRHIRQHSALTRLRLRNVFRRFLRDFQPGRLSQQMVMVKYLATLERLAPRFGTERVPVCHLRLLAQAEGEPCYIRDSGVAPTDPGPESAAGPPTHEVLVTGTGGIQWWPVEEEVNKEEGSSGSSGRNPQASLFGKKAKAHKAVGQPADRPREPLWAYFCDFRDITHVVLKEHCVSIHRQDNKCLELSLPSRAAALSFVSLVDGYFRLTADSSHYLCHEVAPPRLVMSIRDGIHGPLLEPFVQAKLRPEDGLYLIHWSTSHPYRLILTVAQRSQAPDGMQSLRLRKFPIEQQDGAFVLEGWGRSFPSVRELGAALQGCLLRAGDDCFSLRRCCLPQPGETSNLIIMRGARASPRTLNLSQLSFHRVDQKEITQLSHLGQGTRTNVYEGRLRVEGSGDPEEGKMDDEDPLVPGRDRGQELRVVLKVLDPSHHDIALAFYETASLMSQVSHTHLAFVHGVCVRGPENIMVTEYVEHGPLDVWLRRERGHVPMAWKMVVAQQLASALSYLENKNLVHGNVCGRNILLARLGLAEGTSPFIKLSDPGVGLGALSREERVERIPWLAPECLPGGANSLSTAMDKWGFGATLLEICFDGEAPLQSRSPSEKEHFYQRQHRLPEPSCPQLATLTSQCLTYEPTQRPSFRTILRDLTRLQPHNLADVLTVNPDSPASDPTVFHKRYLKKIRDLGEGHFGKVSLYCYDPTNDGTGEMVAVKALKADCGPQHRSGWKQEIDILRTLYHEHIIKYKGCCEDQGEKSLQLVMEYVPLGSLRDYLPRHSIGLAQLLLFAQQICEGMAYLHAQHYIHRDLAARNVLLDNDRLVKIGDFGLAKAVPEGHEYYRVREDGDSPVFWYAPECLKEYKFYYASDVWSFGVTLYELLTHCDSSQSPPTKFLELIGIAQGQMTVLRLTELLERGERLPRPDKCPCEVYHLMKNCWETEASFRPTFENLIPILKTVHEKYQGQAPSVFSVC

## NC(=O)c1cnc(Nc2ccc3c(c2)NCC(O)CO3)nc1NC1CC1 (centres unmarked) [Example 2, 4-(cyclopropylamino)-2-((3-hydroxy-2,3,4,5-tetrahydro-benzo[b][1,4]oxazepin-7-yl)amino)pyrimidin-5-carboxamide]
TYK2 kinase
  IC50: < 10 nM
JAK1 kinase
  IC50: < 10 nM
JAK2 kinase
  IC50: 10 to 100 nM
JAK3 kinase
  IC50: < 10 nM

## NC(=O)c1cnc(Nc2ccc3c(c2)NC[C@H](O)CO3)nc1Nc1ccc2[nH]ccc2c1 [Example 34, 4-((1H-indol-5-yl)amino)-2-(((S)-2,3,4,5-tetrahydro-3-hydroxybenzo[b][1,4]oxazepin-7-yl)amino)pyrimidin-5-carboxamide]
TYK2 kinase
  IC50: < 10 nM
JAK1 kinase
  IC50: < 10 nM
JAK2 kinase
  IC50: < 10 nM
JAK3 kinase
  IC50: < 10 nM

## NC(=O)c1cnc(Nc2ccc3c(c2)NC[C@H](O)CO3)nc1NC1C2CC3CC1CC(O)(C3)C2 (stereo partly drawn) [Example 38, 4-((1-hydroxyadamantan-4-yl)amino)-2-(((S)-2,3,4,5-tetrahydro-3-hydroxybenzo[b][1,4]oxazepin-7-yl)amino)pyrimidin-5-carboxamide]
TYK2 kinase
  IC50: < 10 nM
JAK1 kinase
  IC50: < 10 nM
JAK2 kinase
  IC50: < 10 nM
JAK3 kinase
  IC50: < 10 nM

## COC12CC3CC(C1)C(Nc1nc(Nc4ccc5c(c4)NC[C@H](O)CO5)ncc1C(N)=O)C(C3)C2 (stereo partly drawn) [Example 46, 4-((5-methoxyadamantan-2-yl)amino)-2-(((S)-2,3,4,5-tetrahydro-3-hydroxybenzo[b][1,4]oxazepin-7-yl)amino)pyrimidin-5-carboxamide]
TYK2 kinase
  IC50: < 10 nM
JAK1 kinase
  IC50: < 10 nM
JAK2 kinase
  IC50: < 10 nM
JAK3 kinase
  IC50: < 10 nM

## NC(=O)c1cnc(Nc2ccc3c(c2)NC[C@H](O)CO3)nc1NCC1CCCCC1 [Example 50, 4-((cyclohexylmethyl)amino)-2-(((S)-2,3,4,5-tetrahydro-3-hydroxybenzo[b][1,4]oxazepin-7-yl)amino)pyrimidin-5-carboxamide]
TYK2 kinase
  IC50: < 10 nM
JAK1 kinase
  IC50: 10 to 100 nM
JAK2 kinase
  IC50: < 10 nM
JAK3 kinase
  IC50: < 10 nM

## NC(=O)c1cnc(Nc2ccc3c(c2)NC[C@H](O)CO3)nc1NCCCO [Example 51, 4-((3-hydroxypropyl)amino)-2-(((S)-2,3,4,5-tetrahydro-3-hydroxybenzo[b][1,4]oxazepin-7-yl)amino)pyrimidin-5-carboxamide]
TYK2 kinase
  IC50: < 10 nM
JAK1 kinase
  IC50: 10 to 100 nM
JAK2 kinase
  IC50: 10 to 100 nM
JAK3 kinase
  IC50: 10 to 100 nM

## CC(C)(C)Nc1nc(Nc2ccc3c(c2)NC[C@H](O)CO3)ncc1C(N)=O [Example 53, 4-(tert-butylamino)-2-(((S)-2,3,4,5-tetrahydro-3-hydroxybenzo[b][1,4]oxazepin-7-yl)amino)pyrimidin-5-carboxamide]
TYK2 kinase
  IC50: < 10 nM
JAK1 kinase
  IC50: 10 to 100 nM
JAK2 kinase
  IC50: 10 to 100 nM
JAK3 kinase
  IC50: 10 to 100 nM

## NC(=O)c1cnc(Nc2ccc3c(c2)NC[C@H](O)CO3)nc1NC1CC(F)(F)C1 [Example 54, 4-((3,3-difluorocyclobutyl)amino)-2-(((S)-2,3,4,5-tetrahydro-3-hydroxybenzo[b][1,4]oxazepin-7-yl)amino)pyrimidin-5-carboxamide]
TYK2 kinase
  IC50: < 10 nM
JAK1 kinase
  IC50: 10 to 100 nM
JAK2 kinase
  IC50: 10 to 100 nM
JAK3 kinase
  IC50: 10 to 100 nM

## CC(Nc1nc(Nc2ccc3c(c2)NC[C@H](O)CO3)ncc1C(N)=O)C1CC1 (stereo partly drawn) [Example 55, 4-((1-cyclopropylethyl)amino)-2-(((S)-2,3,4,5-tetrahydro-3-hydroxybenzo[b][1,4]oxazepin-7-yl)amino)pyrimidin-5-carboxamide]
TYK2 kinase
  IC50: < 10 nM
JAK1 kinase
  IC50: < 10 nM
JAK2 kinase
  IC50: < 10 nM
JAK3 kinase
  IC50: < 10 nM

## NC(=O)c1cnc(Nc2ccc3c(c2)NC[C@H](O)CO3)nc1NCC1CCC1 [Example 56, 4-((cyclobutylmethyl)amino)-2-(((S)-2,3,4,5-tetrahydro-3-hydroxybenzo[b][1,4]oxazepin-7-yl)amino)pyrimidin-5-carboxamide]
TYK2 kinase
  IC50: < 10 nM
JAK1 kinase
  IC50: < 10 nM
JAK2 kinase
  IC50: < 10 nM
JAK3 kinase
  IC50: < 10 nM

## NC(=O)c1cnc(Nc2ccc3c(c2)NC[C@H](O)CO3)nc1NCCN1CCOCC1 [Example 61, 4-((2-morpholinoethyl)amino)-2-(((S)-2,3,4,5-tetrahydro-3-hydroxybenzo[b][1,4]oxazepin-7-yl)amino)pyrimidin-5-carboxamide]
TYK2 kinase
  IC50: < 10 nM
JAK1 kinase
  IC50: 10 to 100 nM
JAK2 kinase
  IC50: 10 to 100 nM
JAK3 kinase
  IC50: 10 to 100 nM

## NC(=O)c1cnc(Nc2ccc3c(c2)NC[C@H](O)CO3)nc1NC1CCOC1 (stereo partly drawn) [Example 64, 4-(tetrahydrofuran-3-ylamino)-2-(((S)-2,3,4,5-tetrahydro-3-hydroxybenzo[b][1,4]oxazepin-7-yl)amino)pyrimidin-5-carboxamide]
TYK2 kinase
  IC50: < 10 nM
JAK1 kinase
  IC50: 10 to 100 nM
JAK2 kinase
  IC50: 10 to 100 nM
JAK3 kinase
  IC50: 10 to 100 nM

## C#CCNc1nc(Nc2ccc3c(c2)NC[C@H](O)CO3)ncc1C(N)=O [Example 65, 4-(prop-2-yn-1-ylamino)-2-(((S)-2,3,4,5-tetrahydro-3-hydroxybenzo[b][1,4]oxazepin-7-yl)amino)pyrimidin-5-carboxamide]
TYK2 kinase
  IC50: < 10 nM
JAK1 kinase
  IC50: < 10 nM
JAK2 kinase
  IC50: 10 to 100 nM
JAK3 kinase
  IC50: 10 to 100 nM

## CS(=O)(=O)CCNc1nc(Nc2ccc3c(c2)NC[C@H](O)CO3)ncc1C(N)=O [Example 67, 4-((2-methanesulfonylethyl)amino)-2-(((S)-2,3,4,5-tetrahydro-3-hydroxybenzo[b][1,4]oxazepin-7-yl)amino)pyrimidin-5-carboxamide]
TYK2 kinase
  IC50: < 10 nM
JAK1 kinase
  IC50: 10 to 100 nM
JAK2 kinase
  IC50: 10 to 100 nM
JAK3 kinase
  IC50: 10 to 100 nM

## CC(C)CNc1nc(Nc2ccc3c(c2)NC[C@H](O)CO3)ncc1C(N)=O [Example 70, 4-(isobutylamino)-2-(((S)-2,3,4,5-tetrahydro-3-hydroxybenzo[b][1,4]oxazepin-7-yl)amino)pyrimidin-5-carboxamide]
TYK2 kinase
  IC50: < 10 nM
JAK1 kinase
  IC50: < 10 nM
JAK2 kinase
  IC50: < 10 nM
JAK3 kinase
  IC50: < 10 nM

## NC(=O)c1cnc(Nc2ccc3c(c2)NC[C@H](O)CO3)nc1NCC1CCCC1 [Example 73, 4-((cyclopentylmethyl)amino)-2-(((S)-2,3,4,5-tetrahydro-3-hydroxybenzo[b][1,4]oxazepin-7-yl)amino)pyrimidin-5-carboxamide]
TYK2 kinase
  IC50: < 10 nM
JAK1 kinase
  IC50: < 10 nM
JAK2 kinase
  IC50: < 10 nM
JAK3 kinase
  IC50: < 10 nM

## CCCCNc1nc(Nc2ccc3c(c2)NC[C@H](O)CO3)ncc1C(N)=O [Example 74, 4-(butylamino)-2-(((S)-2,3,4,5-tetrahydro-3-hydroxybenzo[b][1,4]oxazepin-7-yl)amino)pyrimidin-5-carboxamide]
TYK2 kinase
  IC50: < 10 nM
JAK1 kinase
  IC50: < 10 nM
JAK2 kinase
  IC50: < 10 nM
JAK3 kinase
  IC50: < 10 nM

## CCCCO[C@H]1CNc2cc(Nc3ncc(C(N)=O)c(NC4CC4)n3)ccc2OC1 [Example 81, 4-(cyclopropylamino)-2-(((S)-2,3,4,5-tetrahydro-3-butoxybenzo[b][1,4]oxazepin-7-yl)amino)pyrimidin-5-carboxamide]
TYK2 kinase
  IC50: < 10 nM
JAK1 kinase
  IC50: 10 to 100 nM
JAK3 kinase
  IC50: 10 to 100 nM
